Target: T1, Ribosyldihydronicotinamide dehydrogenase [quinone] (Homo sapiens, UniProt P16083)
T1 sequence (P16083 whole entry): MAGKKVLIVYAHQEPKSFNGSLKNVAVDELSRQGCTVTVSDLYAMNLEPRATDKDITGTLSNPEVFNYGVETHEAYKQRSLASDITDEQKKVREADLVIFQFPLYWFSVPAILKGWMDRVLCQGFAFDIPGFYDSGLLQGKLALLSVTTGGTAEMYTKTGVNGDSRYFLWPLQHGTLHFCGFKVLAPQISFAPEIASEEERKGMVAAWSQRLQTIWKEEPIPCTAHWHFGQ
Assay: Inhibition of human quinone reductase 2 expressed in Escherichia coli BL21(DE3) using N-methyldihydronicotinamide as co-substrate

IC50 | SMILES
20.8 µM | Oc1ccc(/C=C/c2cccc(F)c2)cc1O
9.3 µM | COc1ccc(/C=C/c2ccc(O)c(O)c2)cc1
13 µM | COc1ccc(/C=C(/c2cc(OC)cc(OC)c2)C(F)(F)F)cc1
6 µM | Oc1ccc(/C=C/c2ccc(O)c(O)c2)cc1
5.1 µM | COc1cc(/C=C/c2ccc(O)cc2)cc(OC)c1 [PTEROSTILBENE]
4.8 µM | C/C(=C\c1ccc(O)cc1)c1cc(O)cc(O)c1
4.6 µM | COc1cc(/C=C/c2ccc(F)cc2)cc(OC)c1
5.5 µM | COc1ccc(/C=C/c2ccc3ccccc3c2)cc1OC
27.5 µM | COc1ccc(/C(=C\c2cc(OC)cc(OC)c2)CO)cc1
6.8 µM | COc1cccc(/C=C/c2ccc(OC)c(OC)c2)c1
25.5 µM | O=C/C(=C/c1cc(O)cc(O)c1)c1ccc(O)cc1
2.8 µM | C/C(=C\c1ccc(C(F)(F)F)cc1)c1ccc(O)cc1
5.9 µM | N#C/C(=C\c1cc(O)cc(O)c1)c1ccc(O)cc1
10.9 µM | CC/C(=C\c1ccc(N(C)C)cc1)c1cc(O)cc(O)c1
12 µM | COc1ccc(/C(C)=C/c2cc(O)cc(O)c2)cc1
13 µM | COc1ccc(/C=C/c2ccc(N(C)C)cc2)cc1OC

IC50 | SMILES
16.3 µM | CC/C(=C\c1cc(OC)cc(OC)c1)c1ccc(OC)c(OC)c1
24.2 µM | COc1ccc(/C(C=O)=C/c2cc(OC)cc(OC)c2)cc1
31.6 µM | COc1ccc(/C(C#N)=C/c2cc(OC)cc(OC)c2)cc1
27.6 µM | O=C(Nc1ccc(O)cc1)c1cc(O)cc(O)c1
33.7 µM | COc1ccc(/C(C)=C/c2cc(O)cc(O)c2)cc1OC
9.9 µM | COc1cc(/C=C(\C)c2ccc(OC)c(OC)c2)cc(OC)c1
20.1 µM | COc1ccc(/C(C)=C/c2cc(OC)cc(OC)c2)cc1
0.73 µM | COc1cc(/C=C/c2ccc3ccccc3c2)cc(OC)c1
5.1 µM | OC/C(=C\c1cc(O)cc(O)c1)c1ccc(O)cc1
< 14.2 µM | Oc1ccc(/C=C/c2ccc(C(F)(F)F)cc2)cc1O
16.8 µM | O=C(Nc1cc(O)cc(O)c1)c1ccc(O)cc1
9.3 µM | NC(=O)/C(=C\c1cc(O)cc(O)c1)c1ccc(O)cc1
6.7 µM | COc1ccc(/C(C)=C/c2ccc(OC)c(OC)c2)cc1
0.18 µM | COc1ccc(/C=C(/c2cccc(C(F)(F)F)c2)C(F)(F)F)cc1OC
39 µM | C/C(=C\c1cc(O)cc(O)c1)c1ccc(O)cc1

SMILES | IC50
COc1ccc(/C=C/c2cc(OC)cc(OC)c2)cc1 [TRISMETHOXYRESVERATROL] | 14.6 µM
COc1cc(/C=C/c2ccc(OC)c(OC)c2)cc(OC)c1 [(E)-3,4,3',5'-TETRAMETHOXYSTILBENE] | 37.1 µM
